Measured values published in US20250368625A1, “PIPERAZINES” (Grünenthal GmbH, priority 2024, published 2025).
pEC50: −log10 of the molar value.

Target: T1, human SSTR4 (Homo sapiens, UniProt P31391)
T1 construct: expressed in transfected cells; host or cells: CHO-K1
Test: hSSTR4 cAMP assay (cAMP accumulation, LANCE Ultra cAMP kit, CHO-K1 human SSTR4 Gi cell line)
Type: cell-based
Settings: functional agonism, forskolin 10 μM stimulated CHO-K1 human SSTR4 Gi cells, 30 min at 25° C., at least duplicate, averaged; read-out: hSSTR4 EC50
Description: cAMP accumulation assay using a CHO-K1 human SSTR4 Gi cell line.
Quantification of intracellular cAMP was performed using the LANCE Ultra cAMP assay kit from Revvity according to the manufacturer's instructions. CHO-K1 human SSTR4 Gi cell were either seeded in a density of 3K cells per well into a 384 well plate and incubated at 37° C. and 5% CO2 for 18-20 h or a stock of frozen cells were defrosted and seeded in a density of 5K cells per well without any further cultivation directly prior to the assay in a total volume of 5 μL in stimulation buffer. For pre-cultured cells, medium was replaced with 5 μL stimulation buffer before the assay. Cells were then stimulated with forskolin (final concentration 10 μM) and test compound (SSTR4 agonist) in increasing concentrations in duplicates for 30 min at 25° C. After stimulation, cells were lysed by addition of 10 μL of detection buffer (provided with the kit) and cell lysates were further diluted to ensure final cAMP concentrations fitted well into the dynamic range of the test kit. 10 μL of the diluted lysates were then added to respective wells of an OptiPlate-384 microplate. Thereafter, 5 μL of 4× Eu-cAMP tracer working solution was added, followed by addition of 5 μL of ULight-anti-cAMP working solution. The plate was then incubated for 1 h at 25° C. before reading on a TR-FRET microplate instrument. Data were normalized to cAMP high (forskolin only) and low control (forskolin+100 nM SST14) before fitting to a 4-Paramter logistic function.
All data was generated according to the cAMP assay conditions described above in at least duplicate and results are averaged and rounded to two significant figures.

T1 sequence (P31391 whole entry): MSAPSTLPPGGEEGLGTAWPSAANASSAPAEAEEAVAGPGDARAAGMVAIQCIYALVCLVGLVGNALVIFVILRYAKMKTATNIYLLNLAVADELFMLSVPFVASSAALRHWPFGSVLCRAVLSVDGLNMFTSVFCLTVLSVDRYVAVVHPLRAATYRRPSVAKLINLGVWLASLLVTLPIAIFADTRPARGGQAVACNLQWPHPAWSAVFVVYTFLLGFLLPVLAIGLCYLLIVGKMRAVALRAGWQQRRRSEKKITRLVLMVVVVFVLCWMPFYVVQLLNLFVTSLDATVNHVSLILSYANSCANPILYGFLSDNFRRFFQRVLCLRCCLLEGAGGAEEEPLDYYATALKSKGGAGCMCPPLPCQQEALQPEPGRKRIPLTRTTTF

Row | pEC50 | SMILES
1 | 7.28 | Cn1cc(CN2CCNC[C@H]2C(=O)NC(C)(C)c2ncc3c(C4CC4)cccn23)cn1 [SC-120, (S)-N-(2-(8-cyclopropylimidazo[1,5-a]pyridin-3-yl)propan-2-yl)-1-((1-methyl-1H-pyrazol-4-yl)methyl)piperazine-2-carboxamide]
2 | 9.08 | Cn1nc(C(C)(C)NC(=O)[C@@H]2CNCCN2CC(F)(F)F)c2ccccc21 [SC-102, (S)-N-(2-(1-methyl-1H-indazol-3-yl)propan-2-yl)-1-(2,2,2-trifluoroethyl)piperazine-2-carboxamide]
3 | 5.80 | CN1CCNC[C@@H]1C(=O)NC(C)(C)c1ncc2c(Cl)cccn12 [SC-109, (R)-N-(2-(8-chloroimidazo[1,5-a]pyridin-3-yl)propan-2-yl)-1-methylpiperazine-2-carboxamide]
4 | 4.89 | Cc1cccn2c(C(C)(C)NC(=O)[C@@H]3CN(Cc4cc(C(F)(F)F)nn4C)CCN3)ncc12 [SC-064, (S)-4-((1-methyl-3-(trifluoromethyl)-1H-pyrazol-5-yl)methyl)-N-(2-(8-methylimidazo[1,5-a]pyridin-3-yl)propan-2-yl)piperazine-2-carboxamide]
5 | 6.28 | Cc1cccn2c(C(C)(C)NC(=O)[C@@H]3CN(C4CCC4)CCN3)ncc12 [SC-053, (S)-4-cyclobutyl-N-(2-(8-methylimidazo[1,5-a]pyridin-3-yl)propan-2-yl)piperazine-2-carboxamide]
6 | 9.42 | Cc1cccn2c(C(C)(C)NC(=O)[C@@H]3CNCCN3CC3CCC3)ncc12 [SC-033, (S)-1-(cyclobutylmethyl)-N-(2-(8-methylimidazo[1,5-a]pyridin-3-yl)propan-2-yl)piperazine-2-carboxamide]
7 | 6.46 | Cc1cccn2c(C(C)(C)NC(=O)C3CNCCN3C(=O)C3COC3)ncc12 (racemic) [SC-013, rac-N-(2-(8-methylimidazo[1,5-a]pyridin-3-yl)propan-2-yl)-1-(oxetane-3-carbonyl)piperazine-2-carboxamide]
8 | 8.92 | Cc1cccc2c(C(C)(C)NC(=O)[C@@H]3CNCCN3CC3COC3)n[nH]c12 [SC-122, (S)—N-(2-(7-methyl-1H-indazol-3-yl)propan-2-yl)-1-(oxetan-3-ylmethyl)piperazine-2-carboxamide]
9 | 8.02 | Cc1cccn2c(C(C)(C)NC(=O)[C@@H]3CNCCN3)ncc12 [SC-015, (S)-N-(2-(8-methylimidazo[1,5-a]pyridin-3-yl)propan-2-yl)piperazine-2-carboxamide]
10 | 9.60 | Cc1cccn2c(C(C)(C)NC(=O)[C@@H]3CNCCN3CC(C)C)ncc12 [SC-034, (S)-1-isobutyl-N-(2-(8-methylimidazo[1,5-a]pyridin-3-yl)propan-2-yl)piperazine-2-carboxamide]
11 | 8.80 | Cc1cccn2c(C(C)(C)NC(=O)[C@@H]3CNCCN3Cc3cnn(C)c3)nc(C)c12 [SC-117, (S)-N-(2-(1,8-dimethylimidazo[1,5-a]pyridin-3-yl)propan-2-yl)-1-((1-methyl-1H-pyrazol-4-yl)methyl)piperazine-2-carboxamide]
12 | 7.80 | CC(C)(NC(=O)[C@@H]1CNCCN1CC1CC(F)(F)C1)c1ncc2c(C3CC3)cccn12 [SC-121, (S)-N-(2-(8-cyclopropylimidazo[1,5-a]pyridin-3-yl)propan-2-yl)-1-((3,3-difluorocyclobutyl)methyl)piperazine-2-carboxamide]
13 | 9.42 | Cc1cccn2c(C(C)(C)NC(=O)[C@@H]3CNCCN3C)nc(C)c12 [SC-114, (S)-N-(2-(1,8-dimethylimidazo[1,5-a]pyridin-3-yl)propan-2-yl)-1-methylpiperazine-2-carboxamide]
14 | 9.32 | Cc1cccn2c(C(C)(C)NC(=O)[C@@H]3CNCCN3Cc3ccc(C(F)(F)F)nc3)ncc12 [SC-030, (S)-N-(2-(8-methylimidazo[1,5-a]pyridin-3-yl)propan-2-yl)-1-((6-(trifluoromethyl)pyridin-3-yl)methyl)piperazine-2-carboxamide]
15 | 8.15 | Cn1nc(C(C)(C)NC(=O)[C@@H]2CNCCN2CC2COC2)c2ccccc21 [SC-123, (S)—N-(2-(1-methyl-1H-indazol-3-yl)propan-2-yl)-1-(oxetan-3-ylmethyl)piperazine-2-carboxamide]
16 | 7.70 | Cc1cccn2c(C(C)(C)NC(=O)[C@@H]3CN(CC4CCOCC4)CCN3)ncc12 [SC-057, (S)-N-(2-(8-methylimidazo[1,5-a]pyridin-3-yl)propan-2-yl)-4-((tetrahydro-2H-pyran-4-yl)methyl)piperazine-2-carboxamide]

Row | pEC50 | SMILES
17 | 9.64 | Cc1cccn2c(C(C)(C)NC(=O)[C@@H]3CNCCN3C3CCC(F)(F)CC3)ncc12 [SC-032, (S)-1-(4,4-difluorocyclohexyl)-N-(2-(8-methylimidazo[1,5-a]pyridin-3-yl)propan-2-yl)piperazine-2-carboxamide]
18 | 6.21 | Cc1cccn2c(C(C)(C)NC(=O)[C@@H]3CN(C4COC4)CCN3)ncc12 [SC-075, (S)-N-(2-(8-methylimidazo[1,5-a]pyridin-3-yl)propan-2-yl)-4-(oxetan-3-yl)piperazine-2-carboxamide]
19 | 8.51 | Cc1cccn2c(C(C)(C)NC(=O)C3CNCCN3CC3COC3)ncc12 (racemic) [SC-014, rac-N-(2-(8-methylimidazo[1,5-a]pyridin-3-yl)propan-2-yl)-1-(oxetan-3-ylmethyl)piperazine-2-carboxamide]
20 | 6.21 | Cc1cccn2c(C(C)(C)NC(=O)[C@@H]3CN(CC4COC4)CCN3)ncc12 [SC-076, (S)-N-(2-(8-methylimidazo[1,5-a]pyridin-3-yl)propan-2-yl)-4-(oxetan-3-ylmethyl)piperazine-2-carboxamide]
21 | 5.80 | Cc1cccn2c(C(C)(C)NC(=O)[C@@H]3CN(Cc4ccn(C)n4)CCN3)ncc12 [SC-066, (S)-4-((1-methyl-1H-pyrazol-3-yl)methyl)-N-(2-(8-methylimidazo[1,5-a]pyridin-3-yl)propan-2-yl)piperazine-2-carboxamide]
22 | 8.89 | Cc1cccn2c(C(C)(C)NC(=O)[C@@H]3CNCCN3CC3COC3)ncc12 [SC-042, (S)-N-(2-(8-methylimidazo[1,5-a]pyridin-3-yl)propan-2-yl)-1-(oxetan-3-ylmethyl)piperazine-2-carboxamide]
23 | 5.77 | Cc1cccn2c(C(C)(C)NC(=O)[C@@H]3CN(Cc4cccnc4)CCN3)ncc12 [SC-061, (S)-N-(2-(8-methylimidazo[1,5-a]pyridin-3-yl)propan-2-yl)-4-(pyridin-3-ylmethyl)piperazine-2-carboxamide]
24 | 6.66 | Cc1cccn2c(C(C)(C)NC(=O)[C@@H]3CN(Cc4cnco4)CCN3)ncc12 [SC-062, (S)-N-(2-(8-methylimidazo[1,5-a]pyridin-3-yl)propan-2-yl)-4-(oxazol-5-ylmethyl)piperazine-2-carboxamide]
25 | < 5.00 | Cc1cccn2c(C(C)(C)NC(=O)[C@@H]3CN(C(=O)c4ccn(C)n4)CCN3)ncc12 [SC-084, (S)-4-(1-methyl-1H-pyrazole-3-carbonyl)-N-(2-(8-methylimidazo[1,5-a]pyridin-3-yl)propan-2-yl)piperazine-2-carboxamide]
26 | 5.48 | Cc1cccn2c(C(C)(C)NC(=O)[C@@H]3CN(CC(F)(F)F)CCN3)ncc12 [SC-049, (S)-N-(2-(8-methylimidazo[1,5-a]pyridin-3-yl)propan-2-yl)-4-(2,2,2-trifluoroethyl)piperazine-2-carboxamide]
27 | 9.77 | Cc1cccn2c(C(C)(C)NC(=O)[C@@H]3CNCCN3Cc3ccc(C(F)(F)F)cc3)ncc12 [SC-028, (S)-N-(2-(8-methylimidazo[1,5-a]pyridin-3-yl)propan-2-yl)-1-(4-(trifluoromethyl)benzyl)piperazine-2-carboxamide]
28 | 9.92 | Cc1cccn2c(C(C)(C)NC(=O)[C@@H]3CNCCN3Cc3ccccc3F)ncc12 [SC-026, (S)-1-(2-fluorobenzyl)-N-(2-(8-methylimidazo[1,5-a]pyridin-3-yl)propan-2-yl)piperazine-2-carboxamide]
29 | 6.89 | Cc1cccn2c(C(C)(C)NC(=O)[C@@H]3CN(Cc4ccncc4)CCN3)ncc12 [SC-059, (S)-N-(2-(8-methylimidazo[1,5-a]pyridin-3-yl)propan-2-yl)-4-(pyridin-4-ylmethyl)piperazine-2-carboxamide]
30 | 5.96 | CN1CCNC[C@H]1C(=O)NC(C)(C)c1nnc2c(Cl)cccn12 [SC-125, (S)-N-(2-(8-chloro-[1,2,4]triazolo[4,3-a]pyridin-3-yl)propan-2-yl)-1-methylpiperazine-2-carboxamide]
31 | 9.57 | Cc1cccn2c(C(C)(C)NC(=O)[C@@H]3CNCCN3CC3(C(F)(F)F)CC3)ncc12 [SC-020, (S)-N-(2-(8-methylimidazo[1,5-a]pyridin-3-yl)propan-2-yl)-1-((1-(trifluoromethyl)cyclopropyl)methyl)piperazine-2-carboxamide]
32 | 5.47 | CC(=O)N1CCNCC1C(=O)NC(C)(C)c1ncc2c(C)cccn12 (racemic) [SC-009, rac-1-acetyl-N-(2-(8-methylimidazo[1,5-a]pyridin-3-yl)propan-2-yl)piperazine-2-carboxamide]
